# Results as given in patent US7598258B2, “Quinoline derivatives and quinazoline derivatives inhibiting autophosphorylation of macrophage colony stimulating factor receptor” (Kirin Beer Kabushiki Kaisha, priority 2002, dated 2009).
# Molecular target: T1, mouse c-fms (Mus musculus, UniProt P09581)
# T1 construct: Macrophage-like cell line BAC-1.2F5 which expresses c-fms as a M-CSF receptor on cell membranes; endogenous in cells; host or cells: BAC-1.2F5 mouse macrophage-like cell line
# T1 sequence (P09581 20-977): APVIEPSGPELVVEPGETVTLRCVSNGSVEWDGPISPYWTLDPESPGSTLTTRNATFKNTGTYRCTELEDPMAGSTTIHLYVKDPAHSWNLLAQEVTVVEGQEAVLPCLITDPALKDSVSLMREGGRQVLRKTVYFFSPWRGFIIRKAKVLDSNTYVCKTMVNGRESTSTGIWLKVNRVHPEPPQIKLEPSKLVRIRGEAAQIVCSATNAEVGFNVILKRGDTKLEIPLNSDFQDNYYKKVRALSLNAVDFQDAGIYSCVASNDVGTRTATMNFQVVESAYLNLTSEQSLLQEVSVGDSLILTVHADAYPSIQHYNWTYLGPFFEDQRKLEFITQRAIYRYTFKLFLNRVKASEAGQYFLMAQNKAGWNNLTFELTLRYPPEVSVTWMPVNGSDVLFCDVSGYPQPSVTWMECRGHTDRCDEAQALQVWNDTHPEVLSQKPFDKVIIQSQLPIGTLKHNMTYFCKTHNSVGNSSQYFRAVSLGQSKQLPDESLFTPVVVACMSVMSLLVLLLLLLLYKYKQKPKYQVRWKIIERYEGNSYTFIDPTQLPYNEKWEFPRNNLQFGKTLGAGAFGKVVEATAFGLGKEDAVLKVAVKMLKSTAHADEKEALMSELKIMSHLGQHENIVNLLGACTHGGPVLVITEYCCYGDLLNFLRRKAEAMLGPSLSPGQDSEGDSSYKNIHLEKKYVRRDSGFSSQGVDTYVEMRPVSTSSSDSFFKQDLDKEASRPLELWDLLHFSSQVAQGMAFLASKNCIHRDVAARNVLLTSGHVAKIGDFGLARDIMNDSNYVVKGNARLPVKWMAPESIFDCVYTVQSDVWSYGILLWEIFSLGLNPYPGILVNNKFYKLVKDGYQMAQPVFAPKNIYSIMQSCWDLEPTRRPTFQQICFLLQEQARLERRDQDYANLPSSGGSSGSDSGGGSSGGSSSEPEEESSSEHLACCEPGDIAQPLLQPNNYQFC
# Assay: Inhibition of c-fms autophosphorylation in macrophage-like cell line BAC-1.2F5 by M-CSF stimulation (ELISA)
# Assay type: cell-based
# Settings: BAC-1.2F5 cells, human recombinant M-CSF 50 ng/ml, read-out: c-fms autophosphorylation 50% inhibitory concentration (IC50)
# Procedure, shortened: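 BAC-1.2F5 cells serum-starved (0.1% FCS) 12 h, preincubated with compound 1 h at 37° C, then stimulated 6 min with 50 ng/ml human recombinant M-CSF. Lysates captured on anti-phosphotyrosine plates, detected with anti-c-fms antiserum and peroxidase read-out at 450 nm. IC50 from inhibition normalised between ±M-CSF controls.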
row,IC50 [nM],Structure (SMILES)
1,2.2,"COc1cc2nccc(Oc3ccc(NC(=O)N[C@@H](C)c4ccc(F)cc4)cc3)c2cc1OC [Example 2, N-{4-[(6,7-Dimethoxy-4-quinolyl)oxy]phenyl}-N′-[(1S)-1-(4-fluorophenyl)ethyl]urea]"
2,2.4,"COc1cc2nccc(Oc3ccc(NC(=O)N[C@H](C)c4ccc(F)cc4)cc3)c2cc1OC [Example 3, N-{4-[(6,7-Dimethoxy-4-quinolyl)oxy]phenyl}-N′-[(1R)-1-(4-fluorophenyl)ethyl]urea]"
3,12.1,"COc1cc2nccc(Oc3ccc(NC(=O)N[C@@H](C)c4ccc([N+](=O)[O-])cc4)cc3)c2cc1OC [Example 35, N-{4-[(6,7-Dimethoxy-4-quinolyl)oxy]phenyl}-N′-[(1S)-1-(4-nitrophenyl)ethyl]urea]"
4,2.8,"COc1cc2nccc(Oc3ccc(NC(=O)N[C@@H](C)c4ccc(C)cc4)cc3)c2cc1OC [Example 41, N-{4-[(6,7-Dimethoxy-4-quinolyl)oxy]phenyl}-N′-[(1S)-1-(4-methylphenyl)ethyl]urea]"
5,3.8,"COc1cc2nccc(Oc3ccc(NC(=O)N[C@@H](C)c4ccc(Cl)cc4)cc3)c2cc1OC [Example 47, N-[(1S)-1-(4-Chlorophenyl)ethyl]-N′-{4-[(6,7-dimethoxy-4-quinolyl)oxy]phenyl}urea]"

# Second part, the compound before the results:
row,Structure (SMILES),IC50 [nM]
1,"COc1cc2nccc(Oc3ccc(NC(=O)N[C@H](C)c4ccc([N+](=O)[O-])cc4)cc3)c2cc1OC [Example 36, N-{4-[(6,7-Dimethoxy-4-quinolyl)oxy]phenyl}-N′-[(1R)-1-(4-nitrophenyl)ethyl]urea]",31.1
2,"COc1cc2nccc(Oc3ccc(NC(=O)N[C@H](C)c4ccc(C)cc4)cc3)c2cc1OC [Example 42, N-{4-[(6,7-Dimethoxy-4-quinolyl)oxy]phenyl}-N′-[(1R)-1-(4-methylphenyl)ethyl]urea]",38.5
3,"COc1cc2nccc(Oc3ccc(NC(=O)N[C@H](C)c4cccc(Br)c4)cc3)c2cc1OC [Example 45, N-[(1R)-1-(3-Bromophenyl)ethyl]-N′-{4-[(6,7-dimethoxy-4-quinolyl)oxy]phenyl}urea]",22.2
4,"COc1cc2nccc(Oc3ccc(NC(=O)N[C@@H](C)c4cccc(Br)c4)cc3)c2cc1OC [Example 46, N-[(1S)-1-(3-Bromophenyl)ethyl]-N′-{4-[(6,7-dimethoxy-4-quinolyl)oxy]phenyl}urea]",7.3
5,"COc1cc2nccc(Oc3ccc(NC(=O)N[C@H](C)c4ccc(Cl)cc4)cc3)c2cc1OC [Example 48, N-[(1R)-1-(4-Chlorophenyl)ethyl]-N′-{4-[(6,7-dimethoxy-4-quinolyl)oxy]phenyl}urea]",40
6,"COc1cccc([C@H](C)NC(=O)Nc2ccc(Oc3ccnc4cc(OC)c(OC)cc34)cc2)c1 [Example 49, N-{4-[(6,7-Dimethoxy-4-quinolyl)oxy]phenyl}-N′-[(1S)-1-(3-methoxyphenyl)ethyl]urea]",3.2
7,"COc1cccc([C@@H](C)NC(=O)Nc2ccc(Oc3ccnc4cc(OC)c(OC)cc34)cc2)c1 [Example 50, N-{4-[(6,7-Dimethoxy-4-quinolyl)oxy]phenyl}-N′-[(1R)-1-(3-methoxyphenyl)ethyl]urea]",7.2
